Assay results as given in patent US7736636B2, “Method for treating occlusive vascular diseases & wound healing” (priority 2004, dated 2010).
“Also recorded” adds a separate entry of the source. Like-named read-outs stand apart in the source and are kept apart here.

What was measured:
[1] = test system: normal human dermal fibroblast cells (NHDF); settings: in vitro wound healing
Procedure: Additionally, a 3-dimensional wound healing method already established in our Laboratory will be utilized in this study (see below).
In Vitro 3D Wound Healing Assay of Human Dermal Fibroblast Cells:
Step 1: Prepare Contracted Collagen Gels: • 1) Coat 24-well plate with 350 ul 2% BSA at RT for 2 hr, • 2) 80% confluent NHDF (normal human dermal fibroblast cells, Passage 5-9) are trypsinized and neutralized with growth medium, centrifuge and wash once with PBS • 3) Prepare collagen-cell mixture, mix gently and always on ice:
• 4) Aspire 2% BSA from 24 well plate, add collagen-cell mixture 350 ul/well, and incubate the plate in 37° C. CO2 incubator. • 5) After 1 hr, add DMEM+5% FBS medium 0.5 ml/well, use a 10 ul tip Detach the collagen gel from the edge of each well, then incubate for 2 days. The fibroblast cells will contract the collagen gel
Step 2: Prepare 3D Fibrin Wound Clot and Embed Wounded Collagen Culture • 1) Prepare fibrinogen solution (1 mg/ml) with or without testing regents. 350 ul fibrinogen solution for each well in eppendorf tube.
• 2) Cut each contracted collagen gel from middle with scissors. Wash the gel with PBS and transfer the gel to the center of each well of 24 well plate • 3) Add 1.5 ul of human thrombin (0.25 U/ul) to each tube, mix well and then add the solution around the collagen gel, the solution will polymerize in 10 mins. […]

[2] = test system: CAM of 10-day-old chick embryos; experiment: Nicotine, nicotinic acid and FGF2 alone and combined, branch points (Table 2, titled Release of FGF2 From Endothelial Cells); assay type: in vivo; settings: for Average number of branch Points ± SD: n = 16, control 86 ± 14
Procedure: (§1) Chorioallantoic membrane (CAM) Model of Angiogenesis: In vivo Neovascularization was examined by methods described previously. 9-12 Ten-day-old chick embryos were purchased from SPAFAS (Preston, Conn.) and incubated at 37° C. with 55% relative humidity. A hypodermic needle was used to make a small hole in the shell concealing the air sac, and a second hole was made on the broad side of the egg, directly over an avascular portion of the embryonic membrane that was identified by candling. A false air sac was created beneath the second hole by the application of negative pressure at the first hole, causing the CAM to separate from the shell. A window approximately 1.0 cm 2 was cut in the shell over the dropped CAM with a small-crafts grinding wheel (Dremel, division of Emerson Electric Co.), allowing direct access to the underlying CAM. FGF2 (1 μg/mL) was used as a standard proangiogenic agent to induce new blood vessel branches on the CAM of 10-day-old embryos. Sterile disks of No. 1 filter paper (Whatman International) were pretreated with 3 mg/mL cortisone acetate. Nicotine, nicotinic acid analogs, FGF2 or control solvents, and inhibitors were then applied to the disks and the disks allowed to dry. The disks were then suspended in PBS and placed on growing CAMs. Filters treated were placed on the first day of the 3-day incubation, with antibody to FGF2 added 30 minutes later to selected samples as indicated. At 24 hours, the MAPK cascade inhibitor PD 98059 was also added to CAMs topically by means of the filter disks.
Microscopic Analysis of CAM Sections: After incubation at 37° C. with 55% relative humidity for 3 days, the CAM tissue directly beneath each filter disk was resected from control and treated CAM samples. Tissues were washed 3× with PBS, placed in 35-mm Petri dishes (Nalge Nunc), and examined under an SV6 stereomicroscope (Zeiss) at ×50 magnification. Digital images of CAM sections exposed to filters were collected using a 3-charge-coupled device color video camera system (Toshiba) and analyzed with Image-Pro software (Media Cybernetics). The number of vessel branch points contained in a circular region equal to the area of each filter disk were counted. […] The resulting angiogenesis index is the mean±SEM of new branch points in each set.

[3] = test system: CAM of 10-day-old chick embryos; experiment: Chorioallantoic membrane (CAM) model of angiogenesis, Table 1; assay type: in vivo; settings: for Mean Number of Branch Points ± SD: n = 8, control 76 ± 10
Procedure: as §1
Microscopic Analysis of CAM Sections: After incubation at 37° C. with 55% relative humidity for 3 days, the CAM tissue directly beneath each filter disk was resected from control and treated CAM samples. Tissues were washed 3× with PBS, placed in 35-mm Petri dishes (Nalge Nunc), and examined under an SV6 stereomicroscope (Zeiss) at ×50 magnification. Digital images of CAM sections exposed to filters were collected using a 3-charge-coupled device color video camera system (Toshiba) and analyzed with Image-Pro software (Media Cybernetics). The number of vessel branch points contained in a circular region equal to the area of each filter disk were counted. One image was counted in each CAM preparation, and findings from 8 to 10 CAM preparations were analyzed for each treatment condition (Nicotine, nicotinic acid analogs). The resulting angiogenesis index is the mean±SEM of new branch points in each set.

Compound	Stimulation of wound healing (in words) [1]	Average number of branch Points ± SD ([2]; 0.05 ug)	Average number of branch Points ± SD ([2]; 0.1 ug)	Pro-angiogenesis effect compared with FGF2 (in words) ([2]; Table 2)	New blood vessel generation / branch formation in the CAM model (in words) [3]	Mean Number of Branch Points ± SD ([3]; 0.1 μg)	Mean Number of Branch Points ± SD ([3]; 1.0 μg)	New blood vessel generation / branch formation in the CAM model (in words) ([3]; listed as nicotinic acid)	Average number of branch Points ± SD ([2]; 0.5 ug)	Average number of branch Points ± SD ([2]; 1.0 ug)
CN1CCCC1c1cccnc1 (stereo not drawn) [Nicotine]	potent stimulation of wound healing	145 ± 10	192 ± 11	comparable pro-angiogenesis effect to that shown with FGF2	promoted new blood vessel generation; also recorded: promotes new blood vessel branch formation	192 ± 11				
O=C(O)c1cccnc1 [Nicotinic acid]					promoted new blood vessel generation		155 ± 16	promotes new blood vessel branch formation		
FGF2: basic fibroblast growth factor, used as a standard proangiogenic agent							195 ± 22		115 ± 08	195 ± 22
